ChEMBL document CHEMBL1157539, “Thousands of chemical starting points for antimalarial lead identification” (Nature, 2010)

Each molecule was assayed on Plasmodium falciparum (assay: GSK_TCMDC: Inhibition of Plasmodium falciparum 3D7 in whole erythrocytes, using parasite LDH activity as an index of growth.). Settings: Plasmodium falciparum, 3D7.
Format: functional, organism-based

Row | SMILES | XC50 [nM]
1 | CC(C)[C@@H](NC(=O)NC1CCC(CCN2C3CCC2CC(OC(=O)C(CO)c2ccccc2)C3)CC1)C(O)(c1ccccc1)c1ccccc1 (some centres not stated) | 812
2 | Cc1cc(N(C)C)nc(Nc2ccc(NC(=O)c3c(F)cccc3Cl)cc2)n1 | 1090
3 | Cc1ccc(Nc2nc(C)cc(Nc3cccc(NS(C)(=O)=O)c3)n2)cc1 | 917
4 | NC1CCCN(Cc2ccc(-c3ccc(-c4nc5cc(F)ccc5[nH]4)s3)cc2)C1 (configuration not stated) | 177
5 | CC(C)c1ccc(OCC(O)CN(CCN2CCOCC2)C(=O)Nc2ccc(Br)cc2)cc1 (configuration not stated) | 717
6 | Fc1cccc(CNc2ncc(-c3ccsc3)c(-c3nccs3)n2)c1 | 238
7 | CC(C)c1ccc(NC(S)=NN=Cc2ccccn2)cc1 | 724
8 | Cc1cc(OCCCN2CCCCC2)ccc1NC(=O)COc1ccc(Cl)cc1C(=O)c1cc(Cl)cc(C#N)c1 | 892
9 | FC(F)(F)c1ccc2[nH]c(-c3ccc(-c4cccc(CNCCc5cccnc5)c4)s3)nc2c1 | 170
10 | COc1ccc(CC2(CO)CCN(Cc3ccc(O)c(Cl)c3)CC2)cc1 | 859
11 | Cn1nc(-c2ccc(Cl)cc2)c2cc(C(=O)NCCN3CCOCC3)sc21 | 721
12 | COc1ccc(CNc2nc(Nc3cccc(C#N)c3)nc(Nc3cccc(C#N)c3)n2)cc1Cl | 179
13 | CC1(C)N=C(N)N=C(N)N1OCC1COc2ccccc2O1 (configuration not stated) | 35
14 | CCC1(C)CC(CCNCc2ccccc2O)(c2ccc(C)cc2)CCO1 (configuration not stated) | 38.8
15 | CC(=O)Nc1ncc(C(=O)Nc2cccc(-c3cccc(-c4nc5cc(C(F)(F)F)ccc5[nH]4)c3)c2)s1 | 185
16 | COc1cc(NC(=O)CCCCCCCCN2CCN(C)CC2)c2ncccc2c1 | 891
17 | COc1cccc(Nc2nc(C)cc(NC3CCN(Cc4ccccc4)CC3)n2)c1 | 693
18 | O=C(/C=N/O)Nc1ccccc1[N+](=O)[O-] | 785
19 | CCCCCCNC[C@@H](O)[C@H](Cc1ccccc1)NC(=O)c1cc(NCC)cc(N2CCCCS2(=O)=O)c1 | 995
20 | CCCCCCN1CCC(NCc2cccc(C(F)(F)F)c2)CC1 | 246
21 | COc1cccc(NC(=O)Nc2ccc(Nc3nc(C)cc(N4CCCC4)n3)cc2)c1 | 198
22 | CC[C@H]1CN2CCc3cc(OC)c(OC)cc3[C@@H]2C[C@@H]1CC1=NCCc2c1[nH]c1ccc(OCc3ccccc3)cc21 | 772
23 | N=C(N)NCC=C(c1ccccc1)c1ccccc1 | 989
24 | O=C(Nc1cccnc1)c1cc(-c2cccnc2)nc2ccc(Br)cc12 | 640
25 | CS(=O)(=O)NCCCNCc1cccc(-c2ccc(-c3nc4cc(C(F)(F)F)ccc4[nH]3)cc2)c1 | 996

Row | SMILES | XC50 [nM]
26 | CN(Cc1cccc(F)c1)C1CCN(c2cc(NC(=O)c3ccc(F)cc3)ccn2)CC1 | 1160
27 | Nc1nc(N)c2c(Oc3cc(Cl)c(Cl)c(Cl)c3)cccc2n1 | 804
28 | C=CC[C@H](C[C@H](O)[C@H](Cc1ccccc1)NC(=O)c1ccc(-n2cccn2)cc1)C(=O)NC1CCCCC1 | 810
29 | N#Cc1cc(C(=O)c2cc(Cl)ccc2O)cn(-c2cccc(C(F)(F)F)c2)c1=O | 1130
30 | CS(=O)(=O)c1ccc(CNCc2ccc(-c3cccc(-c4nc5cc(F)ccc5[nH]4)c3)cc2)cc1 | 315
31 | CCOC(=O)c1ccc(NC(=O)NCCCC2CCCN(CCCCCNC(=O)/C=C/c3ccc(Cl)c(Cl)c3)C2)cc1 (configuration not stated) | 855
32 | O=C(NCCc1ccccc1)N(Cc1cccc(-c2ccc(CNCCc3ccccc3)cc2)c1)C1CCN(Cc2ccccc2)CC1 | 613
33 | COc1ccc2ncc(Cl)c(CCN3CCC(NCc4ccc5c(n4)NC(=O)CO5)CC3)c2c1 | 470
34 | CNCc1cccc2nc(-c3csc(Cc4cc(Cl)ccc4OCC(C)C)n3)[nH]c12 | 718
35 | Cc1ccccc1Cc1cccc(/N=C(\N)Nc2ccc(Cl)cc2)n1 | 676
36 | COc1ccc(NC(=O)c2ccc(-c3nc(-c4ccc(Cl)cc4)cs3)cc2)cc1N1CCN(C)CC1 | 921
37 | Cc1cc(NCCCCCCN)nc(Nc2ccc(Cl)cc2)n1 | 448
38 | COc1ccc(NC(=O)[C@H](Cc2ccccc2)Nc2cc(C)nc(NCCc3cccs3)n2)cc1 | 749
39 | Cc1cnc2cc3c(cc2c1N1CCN(C)CC1)NCC3 | 779
40 | O=C(Nc1ccc(Cl)c(Cl)c1)N1CCc2cc3nccc(N4CCN5CCC[C@H]5C4)c3cc21 | 628
41 | COc1ccc2ncc(C#N)c(CCN3CCC(NCc4ccc5c(n4)NC(=O)CS5)CC3)c2n1 | 836
42 | Cc1cc(N(C)CCCN(C)C)nc(Nc2ccc(Br)cc2)n1 | 643
43 | CN1CCC(NCc2ccc(-c3ccc(S(=O)(=O)NCc4ccccc4)cc3)cc2)CC1 | 832
44 | CS(=O)(=O)CCNCc1nc(-c2ccc3c(Nc4ccc(Cl)cc4F)ccnc3c2)cs1 | 1080
45 | COc1cc(Cc2cnc(N)nc2N)cc(OCCCCc2ccc([N+](=O)[O-])cc2)c1OC | 989
46 | c1cn(-c2ccc(CNc3nccc(Nc4ccc(OCCN5CCOCC5)cc4)n3)cc2)cn1 | 878
47 | CCN(CC)CCNc1nc(C=Cc2ccc(Cl)cc2)nc2cc3ccccc3cc12 | 147
48 | Cc1ccc(C(=O)Nc2ccc(Nc3ccnc4cc(-c5nccs5)ccc34)cc2O)cc1 | 47.8
49 | O=C(NCCc1cccc(Cl)c1Cl)c1ccc(N2CCN(c3ccncc3)CC2)nc1 | 1060
50 | COc1cccc(C(=O)C2CC2CN(C)CC(O)c2cc(C)c(OC)cc2C)c1 (configuration not stated) | 1140

Row | SMILES | XC50 [nM]
51 | N=C(NCc1ccccc1)Nc1nc(-c2ccc(OCCCn3ccnc3)cc2)cs1 | 253
52 | CN(CC(=O)Nc1ccc(F)c(F)c1F)c1ncnc2sc(-c3ccccc3)cc12 | 874
53 | COCCNC(=O)c1ccc(OC2CCN(CC(C)=Cc3ccccc3)CC2)c(Cl)c1 | 652
54 | CCCCN(CCCC)/C(=N/C(=N)NCc1ccc(Cl)c(Cl)c1)NCCCCCCN/C(=N\C(=N)NCc1ccc(Cl)c(Cl)c1)N(CCCC)CCCC | 399
55 | CN(C)CCCOc1ccc(CN2CC[C@H](NC(=O)c3ccc(Cl)c(Cl)c3)C2)cc1Cl | 957
56 | Cc1ccc(C)c(CC(=O)N2CCC(n3c(C)nc4ccc(F)cc43)CC2)c1 | 193
57 | Cc1cc2nc(-c3cc(Br)ccc3O)c(-c3cc(Br)ccc3O)nc2cc1C | 853
58 | CCn1c(-c2nc(-c3ccc4c(c3)OCO4)cnc2N)nc2cnccc21 | 429
59 | CC(C)n1ncc2c(C(=O)N3CCCCCC3)cc(-c3ccccc3)nc21 | 789
60 | CC(C)n1c(C2CCN(CC3CCN(C(=O)/C=C/c4ccc(Cl)c(Cl)c4)CC3)CC2)nc2ccccc21 | 1030
61 | O=C(/C=C/c1ccc(Cl)c(Cl)c1)NCCCCCN1CCCC(CNS(=O)(=O)c2cccc(C(F)(F)F)c2)C1 (configuration not stated) | 950
62 | Clc1ccc2c(NN=Cc3ccccc3)ccnc2c1 | 755
63 | O=C(Nc1ccc(-c2nc3ccccc3[nH]2)cc1)c1ccc(S(=O)(=O)N2CCCCCC2)cc1 | 411
64 | CN1CCN(c2nc(NCCNc3ccc([N+](=O)[O-])cc3)c3ccccc3n2)CC1 | 1320
65 | CC(C)[C@H](NC(=O)c1ccc(O)c(-c2cccc(C(F)(F)F)c2)c1)C(=O)NC1CCCc2ccccc21 (some centres not stated) | 930
66 | CC(C)C[C@H]1c2[nH]c3ccc(Cl)cc3c2CCN1C(=O)CCc1ccccc1 | 885
67 | COc1cc2nc(N3CCN(c4cc(C)ccc4C)CC3)nc(N)c2cc1OC | 851
68 | O=C(Nc1ccnc(-c2cccnc2)n1)c1cc(C(F)(F)F)cc(C(F)(F)F)c1 | 823
69 | CCCC1(NC[C@@H](O)[C@H](Cc2ccccc2)NC(=O)c2cc(NCC)cc(N3CCCCS3(=O)=O)c2)CC1 | 1080
70 | CCc1cc2c(N)nc(N)nc2nc1-c1ccccc1 | 946
71 | Cc1cc(N2CCCC2=O)ccc1-c1ccc(C(=O)N2CCC(Oc3cccc(Cl)c3)CC2)cc1 | 427
72 | O=C(Nc1ccc(Cl)cc1)Nc1cccc(CCNCc2ccccc2)c1 | 728
73 | O=C(c1cc(C(F)(F)F)cc(C(F)(F)F)c1)N1CCC(CCN2CCC3(CC2)C(=O)NCN3c2ccccc2)CC1Cc1ccc(Cl)c(Cl)c1 (configuration not stated) | 656
74 | c1ccc2c(NCCOCCNc3c4ccccc4nc4ccccc34)c3ccccc3nc2c1 | 878
75 | CN(C)CCC1CCCc2ccc(NC(=O)Nc3cccc(Cl)c3Cl)cc21 (configuration not stated) | 958

Row | SMILES | XC50 [nM]
76 | CNc1c2c(nc3ccc(NC(=O)CCCCCCc4ccccc4)cc13)CCCC2 | 915
77 | Cc1ccc(Nc2nccc(NCC(O)c3cccc(C(F)(F)F)c3)n2)cc1 (configuration not stated) | 677
78 | CCCCCCN1CCCN(Cc2cccc(C(=O)Nc3ccc(C(C)(C)C)cc3)c2)CC1 | 943
79 | Cc1cc(O)c(-c2cccc(Oc3ccc(Cl)cc3)c2)c(C)n1 | 736
80 | Nc1nc(N)c2c(ccc3c2ccn3Cc2ccc(Cl)cc2)n1 | 3.2
81 | N#Cc1ccc(-c2ccc(C(=O)NC3CCN(CCN4CCC(c5cn(CCO)c6ccccc56)CC4)CC3)cc2)cc1 | 758
82 | CCCN(CCC)CCCOc1ccc(C(=O)c2c(-c3ccc(OCCCN(CCC)CCC)cc3)oc3ccc(Cl)cc23)cc1 | 340
83 | O=C(Nc1cc(F)cc(F)c1)N1CCOC(CCN2CCC3(CCc4ccccc43)CC2)(c2ccc(Cl)c(Cl)c2)C1 (configuration not stated) | 275
84 | COc1cc2nc(N3CCC(CNC(=O)c4cc5ccccc5s4)CC3)nc(N)c2cc1OC | 293
85 | O=C(NCc1ccc(F)cc1)c1cc(Br)cc(N2CCN(c3ccncc3)CC2)c1 | 1230
86 | CCc1cccc(-n2c(=O)c3cccnc3n2CC(=O)NCc2ccccc2Cl)c1 | 741
87 | C=C(C)Cn1cc(C2CCN(CCN3CCC(CNC(=O)c4ccc(-c5ccc(C#N)cc5)cc4)CC3)CC2)c2ccccc21 | 433
88 | N#Cc1ccc(-c2ccc(OCC(O)CN3CCCN(Cc4cccc(O)c4Cl)CC3)cc2)cc1 (configuration not stated) | 690
89 | CCCC1N=C(N)N=C(N)N1c1ccccc1 (configuration not stated) | 823
90 | CN(C)c1ccc(C2(c3ccccc3)N=C(N)N(CCCc3ccccc3)C2=O)cc1 (configuration not stated) | 971
91 | Cn1nc(-c2ccc(CN[C@@H]3CCc4ccc(O)cc43)cc2)c2cnc(NC3CCCC3)nc21 | 1120
92 | CC(=O)Nc1nc(C(=O)Nc2ccc(-c3cccc(-c4nc5cc(C(F)(F)F)ccc5[nH]4)c3)cc2)cs1 | 184
93 | C/C=C1/CN2CC[C@H]1C[C@H]2[C@H](O)c1ccnc2ccc(OC)cc12 | 199
94 | COCC(C)n1c(SCC(=O)Nc2cc(C(F)(F)F)ccc2Cl)nc2ccccc2c1=O (configuration not stated) | 130
95 | O=S(=O)(c1ccc2ccccc2c1)N1CCCN(Cc2ccc(OCCCN3CCCCC3)cc2)CC1 | 1100
96 | CC[C@H]1C[N+]2([O-])CC[C@@H]1C[C@H]2[C@H](O)c1cc(-c2ccccc2)nc2ccc(OC)cc12 | 840
97 | Cc1nc2ccc3ccc(CNc4ccc(C(=O)CC(CCC(=O)O)C(=O)O)cc4)cc3c2c(=O)[nH]1 (configuration not stated) | 35.7
